Laboratory results taken from paper PMC10065799, “High-throughput profiling of sequence recognition by tyrosine kinases and SH2 domains using bacterial peptide display” (eLife, 2023).

How the values were obtained:
c-Src kinase domain [1] = biological target: T1, c-Src kinase domain (Homo sapiens, UniProt P12931); assay: ADP-Quest continuous fluorimetric kinase assay (Michaelis-Menten parameters and initial rates); type: biochemical
Source text: A fluorescence-based assay from Eurofins (ADP Quest) was used to measure the Michaelis-Menten kinetic parameters for phosphorylation of the consensus peptides by purified tyrosine kinase domains. In this assay, ADP production as a result of kinase activity is coupled to the production of resorufin, a fluorophore that emits signal at 590 nm. For all experiments, the assay reactions were set up as described in the provided assay kit protocol, in a 384 well plate format. The peptide solutions were serially diluted in 100 mM Tris, pH 8.0, and the kinases were diluted to 50 nM in buffer (10 mM HEPES, 100 mM NaCl, 1 mM TCEP, 5 mM MgCl2, 10% (v/v) glycerol). The final reaction mixtures contained 10 nM of kinase with 100 μM of ATP. Reactions were initiated with the addition of 1 mM ATP into a 50 μL reaction mixture for a final concentration of 100 μM ATP. Phosphorylation reaction progress was monitored by measuring fluorescence at excitation 530 nm and emission 590 nm every 2 min at 37 °C on a plate reader (BioTek Synergy Neo 2). The fluorescence units (RFU) were converted to μM ADP by comparison to a standard curve, and the initial rates were extracted from the linear regime of the reaction progress curves. Initial rates were also measured for samples containing each kinase but lacking a peptide substrate, to account for background ATP hydrolysis. This background rate was subtracted from the rates measured in the presence of peptide. The subtracted rates were plotted as a function of substrate concentration and fit to the Michaelis-Menten equation to extract kcat and KM values.

c-Src kinase domain [2] = biological target: T1, c-Src kinase domain; assay: pTyr-Var library bacterial peptide display kinase screen (enrichment scores); type: biochemical; details: sheet "Src"
EPHB2 kinase domain = assay: as above; type: biochemical, human; details: sheet EPHB2
c-Src kinase domain [3] = biological target: T1, c-Src kinase domain; assay: RP-HPLC assay to measure peptide phosphorylation kinetics; type: biochemical; details: purified peptide substrate
Fer kinase domain = assay: pTyr-Var library bacterial peptide display kinase screen (enrichment scores); type: biochemical, mouse; details: sheet "Fer";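 further: log2 fold change in enrichment of variant over reference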
EPHB1 kinase domain = assay: as above; type: biochemical, human; details: for Screen (variant relative to reference peptide, measured in the pTyr-Var library screen): sheet "EPHB1", variant seq vs reference seq, bacterial peptide display enrichment; for Screen: sheet EPHB1, effect of the variant peptide relative to its reference peptide in the pTyr-Var library screen (enrichment scores)
c-Abl kinase domain = biological target: T2, c-Abl kinase domain (Mus musculus, UniProt P00520); assay: as above; type: biochemical; details: sheet "Abl"; effect of variant peptide relative to its reference peptide in pTyr-Var library screen (enrichment);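 further: log2 fold change in enrichment of variant over reference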
T2 sequence (P00520 242-493 limits assumed): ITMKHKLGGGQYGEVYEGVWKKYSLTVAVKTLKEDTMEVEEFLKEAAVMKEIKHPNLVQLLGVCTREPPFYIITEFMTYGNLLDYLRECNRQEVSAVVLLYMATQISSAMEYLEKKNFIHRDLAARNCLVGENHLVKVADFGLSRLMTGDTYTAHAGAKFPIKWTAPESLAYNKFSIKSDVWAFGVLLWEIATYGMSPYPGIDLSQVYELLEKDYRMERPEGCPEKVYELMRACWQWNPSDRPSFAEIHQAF

[4] = biological target: human c-Src kinase domain (residues 260-528) (human) (UniProt P12931)
[5] = ADP-Quest assay, c-Src kinase domain 10 nM, 100 μM ATP, 37 °C, three to five replicates, error = standard error of global Michaelis-Menten fit
[6] = effect of the variant peptide relative to its reference peptide in the pTyr-Var library screen
[7] = effect of variant peptide relative to its reference peptide in the pTyr-Var library screen (enrichment scores)
[8] = variant peptide versus its reference peptide in the pTyr-Var library screen
[9] = variant peptide relative to its reference peptide, pTyr-Var library screen enrichment
[10] = effect of the variant relative to its reference peptide in the pTyr-Var library screen
[11] = value of the variant peptide against its reference peptide in the pTyr-Var library screen with Fer

| Molecule | Screen (EPHB2 kinase domain; [7]) | Screen (c-Src kinase domain [2]; [8]) | Screen (EPHB1 kinase domain) | Screen (Fer kinase domain; [11]) | further results |
| --- | --- | --- | --- | --- | --- |
| Ac-GPDEPIYEWWWIKKKG-NH2 [Fer Consensus, Fer consensus substrate peptide from X5-Y-X5 screen] | – | – | – | – | Km (c-Src kinase domain [1]; [5]): 8 ± 4 µM; kcat (c-Src kinase domain [1]; [5]): 0.4±0.1 s^–1; phosphorylation of consensus peptide by c-Src (initial rate relative to cognate consensus) (c-Src kinase domain [1]; low concentration: peptide 20 μM, kinase 10–50 nM, Figure 2—figure supplement 2): significant off-target activity |
| Ac-IGEGTYRTVFK-NH2 [CDK5_Y15_G16R, pTyr-Var library variant phosphosite peptide] | -2.132 | – | – | – | Screen (c-Src kinase domain [2]; [6]): -3.502 |
| Ac-SGDINYGQFAQ-NH2 [PLCG1_Y210_T209N, pTyr-Var library variant phosphosite peptide] | – | -3.177 | – | – | Phosphorylation Rate (c-Src kinase domain [3]): 0.307 s⁻¹ |
| CEQELYSQLVF [WAS_Y102_W97C_YF] | – | -0.1333 | – | – | Screen (Fer kinase domain; [9]): -0.3985; Screen (variant relative to reference peptide, measured in the pTyr-Var library screen) (EPHB1 kinase domain): -2.23; Screen (EPHB2 kinase domain; [10]): -2.338; Screen (c-Abl kinase domain): -3.187 |
| DLHGIYQKLVI [TTN_Y21998_R21995H] | – | 0.02812 | – | – | Screen (Fer kinase domain; [9]): 0.5861; Screen (variant relative to reference peptide, measured in the pTyr-Var library screen) (EPHB1 kinase domain): 1.244; Screen (EPHB2 kinase domain; [10]): 1.178; Screen (c-Abl kinase domain): -2.013 |
| EPFELYCEMGS [CBL_Y371_Q367P_YF] | -0.2507 | – | -0.3443 | – | – |
| FAELVYTVFWH [ASS1_Y322_G324V] | 0.0379 | – | 0.03348 | -0.2764 | Screen (c-Src kinase domain [2]; [6]): 0.03298 |
| FGSIMYEFVGK [SLC18A1_Y251_V249I] | -1.759 | -1.273 | – | – | Screen (Fer kinase domain; [9]): -0.674; Screen (variant relative to reference peptide, measured in the pTyr-Var library screen) (EPHB1 kinase domain): -1.716 |
| GNLLIYTEFGN [HGD_Y166_K171N] | 0.7326 | – | 0.6139 | – | Screen (c-Src kinase domain [2]; [6]): -0.3322 |
| HAVFIYDICHV [TWNK_Y508_V507I_YF] | – | -0.8811 | – | – | Screen (Fer kinase domain; [9]): 0.388; Screen (variant relative to reference peptide, measured in the pTyr-Var library screen) (EPHB1 kinase domain): 1.032; Screen (EPHB2 kinase domain; [10]): 1.461 |
| HKDNNYISMWF [PAPOLG_Y432_V433I] | -1.118 | – | -1.294 | -1.378 | – |
| IMNLLYHVVGW [GBA_Y412_T408M] | -0.4774 | – | -0.2669 | -0.4668 | Screen (c-Src kinase domain [2]; [6]): 0.1521 |
| ISKTWYSAEQF [CD207_Y217_P213S] | -0.7343 | – | -0.7306 | – | – |
| KAPPTYDNVLQ [CYP3A4_Y347_T349N] | -1.141 | – | -0.1539 | -0.1979 | – |
| KELALYDENWF [RPS19_Y48_P47L] | 4.277 | – | 4.03 | – | Screen (Fer kinase domain; [9]): 3.889 |
| LDAFIYNAAVL [GRIN2A_Y730_D731N] | -1.324 | – | -1.471 | -3.433 | Screen (c-Src kinase domain [2]; [6]): -1.489 |

| Molecule | Screen (EPHB2 kinase domain; [7]) | Screen (c-Src kinase domain [2]; [8]) | Screen (EPHB1 kinase domain) | Screen (Fer kinase domain; [11]) | further results |
| --- | --- | --- | --- | --- | --- |
| LDVGEYCVPRG [BEX1_Y43_A40V] | -0.4602 | – | -0.3957 | – | – |
| LPHVIYCRLWC [SMAD2_Y128_R133C] | 1.893 | 1.251 | – | – | Screen (variant relative to reference peptide, measured in the pTyr-Var library screen) (EPHB1 kinase domain): 2.05 |
| LTERGYSFTTK [ACTG1_Y198_T203K] | 1.886 | – | 1.554 | 1.86 | – |
| MARDIYQASFF [LTK_Y672_R673Q_YF] | 1.961 | – | 2.318 | 3.102 | Screen (c-Src kinase domain [2]; [6]): 3.363 |
| NSNSDYVDILP [SH2D1B_Y127_V130I] | 0.0762 | – | – | – | Screen (variant relative to reference peptide, measured in the pTyr-Var library screen) (EPHB1 kinase domain): -0.2012 |
| PLDGEYFILQI [TP53_Y327_T329I] | – | -0.4119 | – | – | Screen (variant relative to reference peptide, measured in the pTyr-Var library screen) (EPHB1 kinase domain): 0.4645; Screen (EPHB2 kinase domain; [10]): 0.5203 |
| PLDGEYFTLPI [TP53_Y327_Q331P] | – | 1.231 | – | – | Screen (Fer kinase domain; [9]): 0.4845; Screen (variant relative to reference peptide, measured in the pTyr-Var library screen) (EPHB1 kinase domain): 3.664; Screen (EPHB2 kinase domain; [10]): 3.847 |
| PLFGEYFTLQI [TP53_Y327_D324Y_YF] | – | 1.11 | – | – | Screen (variant relative to reference peptide, measured in the pTyr-Var library screen) (EPHB1 kinase domain): 1.054; Screen (EPHB2 kinase domain; [10]): 0.9055 |
| PSAELYSFALP [PDGFRB_Y716_N718Y_YF] | 2.567 | 2.409 | 2.14 | 1.182 | – |
| QNTGFYFDLFG [PTPN11_Y62_D61Y_YF] | -4.029 | -1.182 | -3.875 | – | – |
| QTPVLYAMLFH [MPZ_Y220_D224Y_YF] | -1.088 | – | -0.7178 | -0.58 | Screen (c-Src kinase domain [2]; [6]): -0.1434 |
| SMEGLYSSAQD [CLIC5_Y111_T114A] | -0.2512 | – | -0.2291 | 0.3754 | Screen (c-Src kinase domain [2]; [6]): 0.03653 |
| TSSAVYMNLAS [GATAD2B_Y317_I316V] | -2.447 | – | -2.461 | -2.177 | Screen (c-Src kinase domain [2]; [6]): -0.9997 |
| VATRWYWSPEL [CDKL5_Y177_R178W] | 2.978 | – | 3.423 | – | – |
| Ac-GPDEPIYEWWWIKKKG-NH2 [Fer Consensus peptide Ac-…-NH2] | – | – | – | – | KM (μM) of phosphorylation, Michaelis-Menten analysis, ADP-Quest assay [4]: 8 µM |
